# Laboratory results published in US12667686B2, “Nitric oxide generating systems” (NOTA Laboratories, LLC, priority 2019, dated 2026).
# Test: GSNO stability as a function of pH
# Assay type: physicochemical
# Conditions: alkaline conditions
# Procedure: The stability of the formulations was tested via UV/Vis analysis and/or via the electrochemical NOA.
structure (smiles),measurement,value
"N[C@@H](CCC(=O)N[C@@H](CSN=O)C(=O)NCC(=O)O)C(=O)O [GSNO, S-nitrosoglutathione]",pH above which GSNO instability and hence NO generation begins to increase,above 8.5
